Which melting point does the source give for `COCC(=O)N[C@H]1CC[C@H](CCN2CCN(c3cc(C(C)(C)C)nc(C(C)(C)C)n3)CC2)CC1` [Example 122, N-(4-{2-[4-(2,6-Di-tert-butylpyrimidin-4-yl)piperazin-1-yl]ethyl}cyclohexyl)-2-methoxyacetamide] here?
Its melting point is 130 °C.

Which melting point does the source give for `CCOCC(=O)N[C@H]1CC[C@H](CCN2CCN(c3ccccc3OC)CC2)CC1` [Example 123, 2-Ethoxy-N-(4-{2-[4-(2-methoxyphenyl)piperazin-1-yl]ethyl}cyclohexyl)acetamide] here?
Its melting point is 210 to 214 °C.

With `COc1ccccc1N1CCN(CC[C@H]2CC[C@H](NC(=O)CC#N)CC2)CC1` [Example 124, 2-Cyano-N-(4-{2-[4-(2-methoxyphenyl)piperazin-1-yl]ethyl}cyclohexyl)acetamide] as the molecule, how does the melting point read?
The melting point was 187 °C.

With `COCC(=O)N[C@H]1CC[C@H](CCN2CCN(c3ccccc3OC)CC2)CC1` [Example 125, 2-Methoxy-N-(4-{2-[4-(2-methoxyphenyl)piperazin-1-yl]ethyl}cyclohexyl)acetamide] as the molecule, how does the melting point read?
Its melting point is 125 to 126 °C.

Which melting point does the source give for `CC(=O)NCC(=O)N[C@H]1CC[C@H](CCN2CCN(c3ccccc3)CC2)CC1` [Example 128, 2-Acetylamino-N-{4-[2-(4-phenylpiperazin-1-yl)ethyl]cyclohexyl}acetamide] here?
The melting point was 227 °C.

For `COCC(=O)N[C@H]1CC[C@H](CCN2CCN(c3ccccc3Cl)CC2)CC1` [Example 129, N-(4-{2-[4-(2-Chlorophenyl)-piperazin-1-yl]ethyl}cyclohexyl)-2-methoxyacetamide], which melting point is on record?
The melting point was 100 °C.

Which melting point does the source give for `COCC(=O)N[C@H]1CC[C@H](CCN2CCN(c3cccc4c3CCCC4)CC2)CC1` [Example 130, 2-Methoxy-N-(4-{2-[4-(5,6,7,8-tetrahydronaphthalen-1-yl)piperazin-1-yl]ethyl}cyclohexyl)acetamide] here?
Its melting point is 120 °C.

Which melting point does the source give for `N#CCC(=O)N[C@H]1CC[C@H](CCN2CCN(c3ccccc3Cl)CC2)CC1` [Example 131, N-(4-{2-[4-(2-Chlorophenyl)-piperazin-1-yl]ethyl}cyclohexyl)-2-cyanoacetamide] here?
Its melting point is 194 °C.

For `CCOCC(=O)N[C@H]1CC[C@H](CCN2CCN(c3ccccc3Cl)CC2)CC1` [Example 132, N-(4-{2-[4-(2-Chlorophenyl)-piperazin-1-yl]ethyl}cyclohexyl)-2-ethoxyacetamide], which melting point is on record?
The melting point was 108 °C.

Which melting point does the source give for `N#CCC(=O)N[C@H]1CC[C@H](CCN2CCN(c3cccc(F)c3)CC2)CC1` [Example 133] here?
Its melting point is 202 °C.

For `CC(=O)NCC(=O)N[C@H]1CC[C@H](CCN2CCN(c3ccccc3F)CC2)CC1` [Example 134, 2-Acetylamino-N-(4-{2-[4-(2-fluorophenyl)piperazin-1-yl]ethyl}cyclohexyl)acetamide], which melting point is on record?
The melting point was 217 °C.

With `CC(C)(C)OCC(=O)N[C@H]1CC[C@H](CCN2CCN(c3cccc(C(F)(F)F)c3)CC2)CC1` [Example 135, 2-tert-Butoxy-N-(4-{2-[4-(3-trifluoromethylphenyl)piperazin-1-yl]ethyl}cyclohexyl)acetamide trans/cis 95/5] as the molecule, how does the melting point read?
Its melting point is 81 °C.

With `Cc1c(Cl)cccc1N1CCN(CC[C@H]2CC[C@H](NC(=O)CC#N)CC2)CC1` [Example 136, N-(4-{2-[4-(3-Chloro-2-methylphenyl)piperazin-1-yl]ethyl}cyclohexyl)-2-cyanoacetamide] as the molecule, how does the melting point read?
The melting point was 179 to 182 °C.

Which melting point does the source give for `CCOCC(=O)N[C@H]1CC[C@H](CCN2CCN(c3cccc(Cl)c3C)CC2)CC1` [Example 137, N-(4-{2-[4-(3-Chloro-2-methylphenyl)piperazin-1-yl]ethyl}cyclohexyl)-2-ethoxyacetamide] here?
Its melting point is 143 °C.

With `N#CCC(=O)N[C@H]1CC[C@H](CCN2CCN(c3cc(C#N)cc(C(F)(F)F)c3)CC2)CC1` [Example 138, 2-Cyano-N-(4-{2-[4-(3-cyano-5-trifluoromethylphenyl)piperazin-1-yl]ethyl}cyclohexyl)acetamide] as the molecule, how does the melting point read?
Its melting point is 186 °C.

For `COCC(=O)N[C@H]1CC[C@H](CCN2CCN(c3cc(C#N)cc(C(F)(F)F)c3)CC2)CC1` [Example 139, N-(4-{2-[4-(3-Cyano-5-trifluoromethylphenyl)piperazin-1-yl]ethyl}cyclohexyl)-2-methoxyacetamide], which melting point is on record?
The melting point was 140 °C.

For `CCOCC(=O)N[C@H]1CC[C@H](CCN2CCN(c3cc(C#N)cc(C(F)(F)F)c3)CC2)CC1` [Example 140, N-(4-{2-[4-(3-Cyano-5-trifluoromethylphenyl)piperazin-1-yl]ethyl}cyclohexyl)-2-ethoxyacetamide], which melting point is on record?
The melting point was 133 °C.

Which melting point does the source give for `N#CCC(=O)N[C@H]1CC[C@H](CCN2CCN(c3cccc(Cl)c3Cl)CC2)CC1` [Example 143, 2-Cyano-N-(4-{2-[4-(2,3-dichlorophenyl)piperazin-1-yl]ethyl}cyclohexyl)acetamide] here?
The melting point was 188 °C.

With `CC(=O)NCC(=O)N[C@H]1CC[C@H](CCN2CCN(c3cccc(F)c3F)CC2)CC1` [Example 145, 2-Acetylamino-N-(4-{2-[4-(2,3-difluorophenyl)piperazin-1-yl]ethyl}cyclohexyl)acetamide] as the molecule, how does the melting point read?
Its melting point is 218 °C.

With `Cc1cc(C)cc(N2CCN(CC[C@H]3CC[C@H](NC(=O)CC#N)CC3)CC2)c1` [Example 148, 2-Cyano-N-(4-{2-[4-(3,5-dimethylphenyl)piperazin-1-yl]ethyl}cyclohexyl)acetamide] as the molecule, how does the melting point read?
The melting point was 192 °C.

With `CCc1cccc(N2CCN(CC[C@H]3CC[C@H](NC(=O)CC#N)CC3)CC2)c1` [Example 149, 2-Cyano-N-(4-{2-[4-(3-ethylphenyl)piperazin-1-yl]ethyl}cyclohexyl)acetamide] as the molecule, how does the melting point read?
The melting point was 142 °C.

Which melting point does the source give for `CN(C)c1cccc(N2CCN(CC[C@H]3CC[C@H](NC(=O)CC#N)CC3)CC2)c1` [Example 150, 2-Cyano-N-(4-{2-[4-(3-dimethylaminophenyl)piperazin-1-yl]ethyl}cyclohexyl)acetamide] here?
Its melting point is 177 °C.

For `N#CCC(=O)N[C@H]1CC[C@H](CCN2CCN(c3cc(Cl)cc(Cl)c3)CC2)CC1` [Example 151, 2-Cyano-N-(4-{2-[4-(3,5-dichlorophenyl)piperazin-1-yl]ethyl}cyclohexyl)acetamide], which melting point is on record?
Its melting point is 200 °C.

Which melting point does the source give for `Cc1ccc(C)c(N2CCN(CC[C@H]3CC[C@H](NC(=O)CC#N)CC3)CC2)c1` [Example 152, 2-Cyano-N-(4-{2-[4-(2,5-dimethylphenyl)piperazin-1-yl]ethyl}cyclohexyl)acetamide] here?
Its melting point is 184 °C.

With `CC(=O)N1CCC(C(=O)N[C@H]2CC[C@H](CCN3CCN(c4cccc(C(F)(F)F)c4)CC3)CC2)CC1` [Example 153, 1-Acetylpiperidine-4-carboxylic acid (4-{2-[4-(3-trifluoro-methylphenyl)piperazin-1-yl]ethyl}cyclohexyl)amide] as the molecule, how does the melting point read?
The melting point was 173 °C.

For `Cc1ccc(Cl)cc1N1CCN(CC[C@H]2CC[C@H](NC(=O)CC#N)CC2)CC1` [Example 155, N-(4-{2-[4-(5-Chloro-2-methylphenyl)piperazin-1-yl]ethyl}cyclohexyl)-2-cyanoacetamide], which melting point is on record?
The melting point was 171 to 172 °C.

Which melting point does the source give for `N#CCC(=O)N[C@H]1CC[C@H](CCN2CCN(c3cccc(Cl)c3)CC2)CC1` [Example 156, N-(4-{2-[4-(3-Chlorophenyl)-piperazin-1-yl]ethyl}cyclohexyl)-2-cyanoacetamide] here?
Its melting point is 186 to 187 °C.

For `N#CCC(=O)N[C@H]1CC[C@H](CCN2CCN(c3cccc(OC(F)(F)F)c3)CC2)CC1` [Example 157, 2-Cyano-N-(4-{2-[4-(3-trifluoromethoxyphenyl)piperazin-1-yl]ethyl}cyclohexyl)acetamide], which melting point is on record?
Its melting point is 173 to 174 °C.

For `N#CCC(=O)N[C@H]1CC[C@H](CCN2CCN(c3cccc(C(F)(F)F)c3F)CC2)CC1` [Example 158, 2-Cyano-N-(4-{2-[4-(2-fluoro-3-trifluoromethylphenyl)piperazin-1-yl]ethyl}cyclohexyl)acetamide], which melting point is on record?
The melting point was 194 °C.

Which melting point does the source give for `N#CCC(=O)N[C@H]1CC[C@H](CCN2CCN(c3cc(F)cc(F)c3)CC2)CC1` [Example 159, 2-Cyano-N-(4-{2-[4-(3,5-difluorophenyl)piperazin-1-yl]ethyl}cyclohexyl)acetamide trans/cis 95/5] here?
The melting point was 196 °C.

With `COc1cc(N2CCN(CC[C@H]3CC[C@H](NC(=O)CC#N)CC3)CC2)cc(C(F)(F)F)c1` [Example 160, 2-Cyano-N-(4-{2-[4-(3-methoxy-5-trifluoromethylphenyl)piperazin-1-yl]ethyl}cyclohexyl)acetamide] as the molecule, how does the melting point read?
Its melting point is 183 to 184 °C.

For `N#CCCCC(=O)N[C@H]1CC[C@H](CCN2CCN(c3cccc(C(F)(F)F)c3)CC2)CC1` [Example 161, 4-Cyano-N-(4-{2-[4-(3-trifluoromethylphenyl)piperazin-1-yl]ethyl}cyclohexyl)butanamide], which melting point is on record?
Its melting point is 149 °C.

Which melting point does the source give for `N#CCC(=O)N[C@H]1CC[C@H](CCN2CCN(c3ccc(F)cc3F)CC2)CC1` [Example 162, 2-Cyano-N-(4-{2-[4-(2,4-difluorophenyl)piperazin-1-yl]ethyl}cyclohexyl)acetamide] here?
Its melting point is 188 °C.

For `COc1ccc(C(F)(F)F)cc1N1CCN(CC[C@H]2CC[C@H](NC(=O)CC#N)CC2)CC1` [Example 165, 2-Cyano-N-(4-{2-[4-(2-methoxy-5-trifluoromethylphenyl)piperazin-1-yl]ethyl}cyclohexyl)acetamide], which melting point is on record?
The melting point was 183 °C.

For `Cc1cccc(N2CCN(CC[C@H]3CC[C@H](NC(=O)CC#N)CC3)CC2)c1` [Example 166, 2-Cyano-N-{4-[2-(4-m-tolylpiperazin-1-yl)ethyl]cyclohexyl}acetamide], which melting point is on record?
The melting point was 175 °C.

Which melting point does the source give for `CCN(CC)CCC(=O)N[C@H]1CC[C@H](CCN2CCN(c3cccc(C(F)(F)F)c3)CC2)CC1` [Example 167, 3-Diethylamino-N-(4-{2-[4-(3-trifluoromethylphenyl)piperazin-1-yl]ethyl}cyclohexyl)propanamide trans/cis 85/15] here?
The melting point was 77 °C.

For `CC(C)(C)c1cccc(N2CCN(CC[C@H]3CC[C@H](NC(=O)CC#N)CC3)CC2)c1` [Example 169, N-(4-{2-[4-(3-tert-Butylphenyl)piperazin-1-yl]ethyl}cyclohexyl)-2-cyanoacetamide], which melting point is on record?
Its melting point is 150 °C.

Which melting point does the source give for `CCOc1cccc(N2CCN(CC[C@H]3CC[C@H](NC(=O)CC#N)CC3)CC2)c1` [Example 170, 2-Cyano-N-(4-{2-[4-(3-ethoxyphenyl)piperazin-1-yl]ethyl}cyclohexyl)acetamide] here?
The melting point was 157 to 159 °C.

Source: patent publication US8802678B2, “Carbonylated (aza) cyclohexanes as dopamine D3 receptor ligands” (Bioprojet, priority 2006, dated 2014)
